Measurements reported in US20260285850A1, “SUBSTITUTED OXAZOLIDINONES AND IMIDAZOLINONES AS HERBICIDES” (FMC CORPORATION, priority 2023, published 2026).

How the values were obtained:
Format in all cases: in vivo
[1] = tested on: barnyardgrass (Echinochloa crus-galli); assay: Test A preemergence soil spray, visual injury rating 0-100; conditions: 10 days, 0 = no effect, 100 = complete control
Procedure, shortened: (§1)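 Preemergence directed soil spray or postemergence spray (2-10 cm, 1-2 leaf); loam/sand mix; compound in non-phytotoxic solvent + surfactant. Greenhouse, 10 d. Visual injury vs untreated, 0 = none, 100 = complete control.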

[2] = tested on: blackgrass (Alopecurus myosuroides); assay: as above; conditions: 10 days, 0 = no effect, 100 = complete control
Procedure, shortened: as §1

corn (Zea mays) [3] = assay: as above; conditions: 10 days, 0 = no effect, 100 = complete control
Procedure, shortened: as §1

[4] = tested on: green foxtail (Setaria viridis); assay: as above; conditions: 10 days, 0 = no effect, 100 = complete control
Procedure, shortened: as §1

kochia (Bassia scoparia) [5] = assay: as above; conditions: 10 days, 0 = no effect, 100 = complete control
Procedure, shortened: as §1

[6] = tested on: oat, wild (wild oat, Avena fatua); assay: as above; conditions: 10 days, 0 = no effect, 100 = complete control
Procedure, shortened: as §1

[7] = tested on: palmer (palmer amaranth, palmer pigweed, Amaranthus palmeri); assay: as above; conditions: 10 days, 0 = no effect, 100 = complete control
Procedure, shortened: as §1

[8] = tested on: ragweed (common ragweed, Ambrosia artemisiifolia); assay: as above; conditions: 10 days, 0 = no effect, 100 = complete control
Procedure, shortened: as §1

[9] = tested on: ryegrass, Italian (italian ryegrass, Lolium multiflorum); assay: as above; conditions: 10 days, 0 = no effect, 100 = complete control
Procedure, shortened: as §1

soybean (Glycine max) [10] = assay: as above; conditions: 10 days, 0 = no effect, 100 = complete control
Procedure, shortened: as §1

[11] = tested on: wheat (Triticum aestivum); assay: as above; conditions: 10 days, 0 = no effect, 100 = complete control
Procedure, shortened: as §1

[12] = tested on: barnyardgrass (Echinochloa crus-galli); assay: Test A postemergence application, visual injury rating 0-100; conditions: 10 days
Procedure, shortened: as §1

[13] = tested on: blackgrass (Alopecurus myosuroides); assay: as above; conditions: 10 days
Procedure, shortened: as §1

corn (Zea mays) [14] = assay: as above; conditions: 10 days
Procedure, shortened: as §1

[15] = tested on: galium (catchweed bedstraw, Galium aparine); assay: as above; conditions: 10 days
Procedure, shortened: as §1

[16] = tested on: green foxtail (Setaria viridis); assay: as above; conditions: 10 days
Procedure, shortened: as §1

[17] = tested on: horseweed (Erigeron canadensis); assay: as above; conditions: 10 days
Procedure, shortened: as §1

kochia (Bassia scoparia) [18] = assay: as above; conditions: 10 days
Procedure, shortened: as §1

[19] = tested on: oat, wild (wild oat, Avena fatua); assay: as above; conditions: 10 days
Procedure, shortened: as §1

[20] = tested on: palmer (palmer amaranth, palmer pigweed, Amaranthus palmeri); assay: as above; conditions: 10 days
Procedure, shortened: as §1

[21] = tested on: ragweed (common ragweed, Ambrosia artemisiifolia); assay: as above; conditions: 10 days
Procedure, shortened: as §1

[22] = tested on: ryegrass, Italian (italian ryegrass, Lolium multiflorum); assay: as above; conditions: 10 days
Procedure, shortened: as §1

soybean (Glycine max) [23] = assay: as above; conditions: 10 days
Procedure, shortened: as §1

[24] = tested on: wheat (Triticum aestivum); assay: as above; conditions: 10 days
Procedure, shortened: as §1

[25] = tested on: barnyardgrass (Echinochloa crusgalli); assay: Test B flooded paddy test, visual plant response rating 0-100; conditions: 250 g ai/ha, Flood, applied to paddy water, evaluated after 13 days
Procedure, shortened: (§2)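 Each species was raised to two leaves before flooding to a 3 cm depth and dosing the water with compound. Injury was assessed by eye after 13 days under greenhouse conditions.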

[26] = tested on: ducksalad (Heteranthera limosa); assay: as above; conditions: 250 g ai/ha, Flood, applied to paddy water, evaluated after 13 days
Procedure, shortened: as §2

rice (Oryza sativa) = assay: as above; conditions: 250 g ai/ha, Flood, applied to paddy water, evaluated after 13 days
Procedure, shortened: as §2

[27] = tested on: sedge, umbrella (small-flower umbrella sedge, Cyperus difformis); assay: as above; conditions: 250 g ai/ha, Flood, applied to paddy water, evaluated after 13 days
Procedure, shortened: as §2

[28] = 31 g ai/ha, postemergence, 0 = no effect, 100 = complete control
[29] = Postemergence, 125 g ai/ha, 0 is no effect, 100 is complete control

CC1(C(=O)NC2C=CC(C(=O)OCc3ccc(F)cc3)C2)CN(c2cc(F)cc(F)c2)C(=O)O1 (stereo not shown) [Compound 54]
20: Blackgrass plant response rating (0-100) ([2]; 31 g ai/ha) | Horseweed plant response rating (0-100) [17, 28]
0: Corn plant response rating (0-100) (corn (Zea mays) [3]; 31 g ai/ha) | Foxtail, Green plant response rating (0-100) ([4]; 31 g ai/ha) | Kochia plant response rating (0-100) (kochia (Bassia scoparia) [5]; 31 g ai/ha) | Oat, Wild plant response rating (0-100) ([6]; 31 g ai/ha) | Ragweed plant response rating (0-100) ([8]; 31 g ai/ha) | Ragweed plant response rating (0 to 100 scale) ([8]; 125 g ai/ha)
50: Ryegrass, Italian plant response rating (0-100) ([9]; 31 g ai/ha) | Ragweed plant response rating (0-100) [21, 28]
60: Blackgrass plant response rating (0 to 100 scale) ([2]; 125 g ai/ha) | Foxtail, Green plant response rating (0 to 100 scale) [16, 29] | Ragweed plant response rating (0 to 100 scale) [21, 29] | Soybean plant response rating (0-100) (soybean (Glycine max) [23]; [28]) | Soybean plant response rating (0 to 100 scale) (soybean (Glycine max) [23]; [29])
10: Amaranth, Palmer plant response rating (0-100) ([7]; 31 g ai/ha) | Soybean plant response rating (0-100) (soybean (Glycine max) [10]; 31 g ai/ha)
80: Wheat plant response rating (0-100) ([11]; 31 g ai/ha) | Blackgrass plant response rating (0-100) [13, 28] | Galium plant response rating (0-100) [15, 28] | Galium plant response rating (0 to 100 scale) [15, 29] | Horseweed plant response rating (0 to 100 scale) [17, 29]
95: Plant response rating, Ducksalad (0 to 100 scale, 0 is no effect and 100 is complete control) [26] | Plant response rating, Sedge, Umbrella (0 to 100 scale, 0 is no effect and 100 is complete control) [27]
30: Barnyardgrass plant response rating (0-100) ([1]; 31 g ai/ha) | Corn plant response rating (0 to 100 scale) (corn (Zea mays) [3]; 125 g ai/ha) | Foxtail, Green plant response rating (0 to 100 scale) ([4]; 125 g ai/ha)
70: Soybean plant response rating (0 to 100 scale) (soybean (Glycine max) [10]; 125 g ai/ha) | Barnyardgrass plant response rating (0-100) [12, 28] | Kochia plant response rating (0-100) (kochia (Bassia scoparia) [18]; [28]) | Ryegrass, Italian plant response rating (0-100) [22, 28]
40: Foxtail, Green plant response rating (0-100) [16, 28]
15: Plant response rating, Rice (0 to 100 scale, 0 is no effect and 100 is complete control) (rice (Oryza sativa))
100: Barnyardgrass plant response rating (0 to 100 scale) ([1]; 125 g ai/ha) | Amaranth, Palmer plant response rating (0 to 100 scale) ([7]; 125 g ai/ha) | Ryegrass, Italian plant response rating (0 to 100 scale) ([9]; 125 g ai/ha) | Barnyardgrass plant response rating (0 to 100 scale) [12, 29] | Corn plant response rating (0 to 100 scale) (corn (Zea mays) [14]; [29]) | Oat, Wild plant response rating (0 to 100 scale) [19, 29] | Amaranth, Palmer / Pigweed, Palmer plant response rating (0 to 100 scale) [20, 29]
90: Kochia plant response rating (0 to 100 scale) (kochia (Bassia scoparia) [5]; 125 g ai/ha) | Oat, Wild plant response rating (0 to 100 scale) ([6]; 125 g ai/ha) | Wheat plant response rating (0 to 100 scale) ([11]; 125 g ai/ha) | Blackgrass plant response rating (0 to 100 scale) [13, 29] | Corn plant response rating (0-100) (corn (Zea mays) [14]; [28]) | Kochia plant response rating (0 to 100 scale) (kochia (Bassia scoparia) [18]; [29]) | Oat, Wild plant response rating (0-100) [19, 28] | Amaranth, Palmer plant response rating (0-100) [20, 28] | Ryegrass, Italian plant response rating (0 to 100 scale) [22, 29] | Wheat plant response rating (0-100) [24, 28] | Wheat plant response rating (0 to 100 scale) [24, 29] | Plant response rating, Barnyardgrass (0 to 100 scale, 0 is no effect and 100 is complete control) [25]
